Converted amounts (≈) assume the structure as drawn. Like-named read-outs stand apart in the source and are kept apart here.
How the values were obtained:
[1] = tested on: Enterococcus faecalis ATCC 11420; test: Broth dilution MIC/MBC, reference strain; format: cell-based
Experimental: (§1) The tests were carried out using a serial dilution method, allowing the determination of MIC (minimal concentration inhibiting bacterial growth), MBC (minimal bactericidal concentration), and MFC (minimal fungicidal concentration) values.
(§2) Antimicrobial activity was tested using the following reference strains: Staphylococcus aureus ATCC 6538 (MSSA), Staphylococcus aureus ATCC 43300 (MRSA), Staphylococcus epidermidis PCM 2118, Escherichia coli ATCC 11229, Pseudomonas aeruginosa ATCC 15442, Proteus vulgaris NCTC 4635, Enterococcus faecalis ATCC 11420, and Candida albicans ATCC 10231.
(§3) A broth dilution method was used to determine minimal inhibitory concentration (MIC) for tested compounds as recommended by Clinical Laboratory Standards Institute (CLSI) guidelines. Investigated compounds were diluted in Mueller Hinton Broth 2 (Sigma-Aldrich Co., St. Louis, MO, USA) in polypropylene 96-well plates and initial inoculum 5 × 10^5 cfu/mL were incubated at 37 °C for 18 h. MIC was taken as the lowest drug concentration at which an observable growth was inhibited. […] The loopful (10 µL) of the tested sample was transferred to Tryptic Soy Agar (TSA, Becton-Dickinson, Franklin Lakes, NJ, USA) and incubated at 37 °C for 48 h. […] Drug Solutions were made fresh on the day of the assay. All experiments were performed in triplicate.

[2] = tested on: Escherichia coli ATCC 11229; test: Broth dilution MIC/MBC, reference strain; format: cell-based
Experimental: as §1, §2, §3

[3] = tested on: Proteus vulgaris NCTC 4635; test: Broth dilution MIC/MBC, reference strain; format: cell-based
Experimental: as §1, §2, §3

[4] = tested on: Pseudomonas aeruginosa ATCC 15442; test: Broth dilution MIC/MBC, reference strain; format: cell-based
Experimental: as §1, §2, §3

[5] = tested on: Staphylococcus aureus ATCC 43300 (MRSA); test: Broth dilution MIC/MBC, reference strain; format: cell-based
Experimental: as §1, §2, §3

[6] = tested on: Staphylococcus aureus ATCC 6538 (MSSA); test: Broth dilution MIC/MBC, reference strain; format: cell-based
Experimental: as §1, §2, §3

[7] = tested on: Staphylococcus epidermidis PCM 2118; test: Broth dilution MIC/MBC, reference strain; format: cell-based
Experimental: as §1, §2, §3

[8] = tested on: Candida albicans ATCC 10231; test: Broth dilution MIC/MFC, reference fungal strain; format: cell-based
Experimental: as §1, §2, §3

MRSA 51 biofilm = test: Biofilm inhibition assay (crystal violet); format: cell-based, Staphylococcus aureus; settings: MRSA 51, 4 × MIC
Experimental: (§4) For many decades, S. aureus has been identified as the most common etiologic agent of device related infections, associated with biofilm formation. These infections are hard to cure because the specific structure of biofilm confers resistance to the host immune response and to the action of antibiotics.
(§5) Then, 100 µL bacterial suspension prepared from fresh overnight culture by diluting with TSB to obtain the initial inoculum 2 × 10^6 CFU/mL was added. The plates were incubated for 24 h at 37 °C. After the incubation, the wells were discarded and were gently rinsed three times with PBS to remove planktonic staphylococcal cells. Then, contents of the wells were discarded and the biofilm was fixed with 200 µL methanol for 20 min and dried at room temperature for 30 min. The biofilm was stained by adding 200 µL 1.8% crystal violet solution for 15 min. After staining, the plates were rinsed with water and 200 µL bleaching solution (30% ethanol, 30% glacial acetic acid, 40% water) added for 15 min to dissolve the remaining crystal violet. A microplater reader was used to measure the absorbance of the adherent biofilm at 570 nm (OD570). […] The negative control included only the growth medium.

MRSA 52 biofilm = test: Biofilm inhibition assay (crystal violet); format: cell-based, Staphylococcus aureus; settings: MRSA 52, 4 × MIC
Experimental: as §4, §5

MSSA 58 biofilm = test: Biofilm inhibition assay (crystal violet); format: cell-based, Staphylococcus aureus
Experimental: as §4, §5

MSSA 59 biofilm = test: Biofilm inhibition assay (crystal violet); format: cell-based, Staphylococcus aureus; settings: MSSA 59, 4 × MIC
Experimental: as §4, §5

[9] = tested on: Gram-positive reference strains; test: Broth dilution MIC/MBC, summary over Gram-positive reference strains; format: cell-based; settings: summary over the Gram-positive reference strains (Table 1)
Experimental: […]. The tests were carried out using a serial dilution method, allowing the determination of MIC (minimal concentration inhibiting bacterial growth), MBC (minimal bactericidal concentration), and MFC (minimal fungicidal concentration) values.
as §2, §3

[10] = tested on: clinical isolates of methicillin-resistant S. aureus (50–54) and methicillin-sensitive S. aureus (55–59); test: Broth dilution MIC/MBC, summary over clinical S. aureus isolates; format: cell-based, Staphylococcus aureus
Description: […]. Both MRSA and MSSA strains were derived from various human infections.
[…]. Five methicillin-resistant S. aureus strains were isolated from nose (n = 1), bronchoalveolar lavage (n = 1), sputum (n = 1), wound (n = 1), and blood (n = 1); five methicillin-susceptible S. aureus strains were isolated from throat (n = 1), bronchoalveolar lavage (n = 1), sputum (n = 1), abscess (n = 1), and blood (n = 1).
The identity of S. aureus isolates was confirmed with conventional methods and with Pastorex Staph-Plus latex agglutination kit (Bio-Rad, Marnes-la-Coquette, France) and verified applying the polymerase chain reaction (PCR) of S. aureus-specific region of the thermonuclease gene, nuc. Resistance to methicillin was first verified using cefoxitin disk (30 µg), and then, identified based on the presence of mecA gene. S. aureus ATCC®25923 (methicillin-susceptible) and S. aureus ATCC®43300 (MDR) were applied as the reference strains. Both the reference and clinical strains were stored at −80 °C, in Tryptic Soy Broth (TSB, Becton-Dickinson, Franklin Lakes, NJ, USA) supplemented with 15% glycerol.
as §3

## Cc1cc(S(=O)(=O)NC(=O)CCC2CCCCC2)c(SCc2cccc(C(F)(F)F)c2)cc1Cl [Compound 10, N-[4-Chloro-5-methyl-2-(3-trifluoromethylbenzylthio)benzenesulfonyl]-3-cyclohexylpropanamide]
[1]; E. f. ATCC 11420
  MBC/MIC: 8
[1]; Enterococcus faecalis, ATCC11420, E. faecalis ATCC 11420, read-out: MBC
  MBC: 64 µg/mL (≈ 120 µM)
[1]; Enterococcus faecalis, ATCC11420, E. faecalis ATCC 11420, read-out: MIC
  MIC: 8 µg/mL (≈ 15 µM)
[2]; E. c. ATCC 11229
  MBC/MIC: >1
[2]; Escherichia coli, ATCC11229, E. coli ATCC 11229, read-out: MBC
  MBC: > 128 µg/mL
[2]; Escherichia coli, ATCC11229, E. coli ATCC 11229, read-out: MIC
  MIC: 128 µg/mL (≈ 240 µM)
[3]; P. v. NCTC 4635
  MBC/MIC: >1
[3]; Proteus vulgaris, NCTC4635, P. vulgaris NCTC 4635, read-out: MBC
  MBC: > 128 µg/mL
[3]; Proteus vulgaris, NCTC4635, P. vulgaris NCTC 4635, read-out: MIC
  MIC: 128 µg/mL (≈ 240 µM)
[4]; P. a. ATCC 15442
  MBC/MIC: >1
[4]; Pseudomonas aeruginosa, ATCC15442, P. aeruginosa ATCC 15442, read-out: MBC
  MBC: > 128 µg/mL
[4]; Pseudomonas aeruginosa, ATCC15442, P. aeruginosa ATCC 15442, read-out: MIC
  MIC: 128 µg/mL (≈ 240 µM)
[5]; S. a. ATCC 43300
  MBC/MIC: 2
[5]; Staphylococcus aureus, S. aureus ATCC 43300, read-out: MBC
  MBC: 16 µg/mL (≈ 30 µM)
[5]; Staphylococcus aureus, S. aureus ATCC 43300, read-out: MIC
  MIC: 8 µg/mL (≈ 15 µM)
[6]; S. a. ATCC 6538
  MBC/MIC: 8
[6]; Staphylococcus aureus, S. aureus ATCC 6538, read-out: MBC
  MBC: 64 µg/mL (≈ 120 µM)
[6]; Staphylococcus aureus, S. aureus ATCC 6538, read-out: MIC
  MIC: 8 µg/mL (≈ 15 µM)
[7]; S. e. PCM 2118
  MBC/MIC: 1
[7]; S. epidermidis PCM 2118
  MBC: 8 µg/mL (≈ 15 µM)
[7]; Staphylococcus epidermidis, PCM2118, S. epidermidis PCM 2118, read-out: MBC
  MBC: 4 to 16 µg/mL (≈ 7.49 to 30 µM)
[7]; Staphylococcus epidermidis, PCM2118, S. epidermidis PCM 2118, read-out: MIC
  MIC: 8 µg/mL (≈ 15 µM)
[8]; C. a. ATCC 10231
  MFC/MIC: 2
[8]; Candida albicans, ATCC10231, C. albicans ATCC 10231, read-out: MFC
  MFC: 128 µg/mL (≈ 240 µM)
[8]; Candida albicans, ATCC10231, C. albicans ATCC 10231, read-out: MIC
  MIC: 64 µg/mL (≈ 120 µM)
MRSA 51 biofilm
  inhibition of biofilm formation: 88–89%
MRSA 52 biofilm
  inhibition of biofilm formation: 88–89%
MSSA 58 biofilm; MSSA 58, concentration equal to the MIC
  inhibition of biofilm formation: about 91%
MSSA 58 biofilm; MSSA 58, ½ MIC (2 μg/mL)
  inhibition of biofilm formation: 67%
MSSA 59 biofilm
  inhibition of biofilm formation: 91%
[9]
  MBC: 8 to 64 µg/mL
  MIC: 8 µg/mL (≈ 15 µM)
[9]; read-out: MBC
  MBC: 8 to 64 µg/mL (≈ 15 to 120 µM)
[9]; read-out: MIC
  MIC: 8 µg/mL (≈ 15 µM)
[10]; Staphylococcus aureus, reference MRSA and MSSA strains as well as clinical isolates, read-out: MIC
  MIC: 4 to 8 µg/mL (≈ 7.49 to 15 µM)
[10]; Staphylococcus aureus, summary over ten clinical MRSA and MSSA isolates (Table 4), read-out: MBC
  MBC: > 128 µg/mL
[10]; Staphylococcus aureus, summary over ten clinical MRSA and MSSA isolates (Table 4), read-out: MIC
  MIC: 4 µg/mL (≈ 7.49 µM)
[10]; summary over ten clinical MRSA and MSSA isolates (Table 4)
  MIC: 4 to 8 µg/mL

Source: article PMC6981581, “N-(2-Arylmethylthio-4-Chloro-5-Methylbenzenesulfonyl)amide Derivatives as Potential Antimicrobial Agents—Synthesis and Biological Studies” (International Journal of Molecular Sciences, 2019)
